Measured values: ChEMBL document CHEMBL5727772, “Substituted 3,4,5,6,8,10,14,14a-octahydro-2h-2,6-methanopyrido[1′,2′:4,5]pyrazino[2,1-b][1,3]oxazocines and methods for treating viral infections” (2020)

Assay: 24 hours prior to assay, media containing 5 mM sodium butyrate were added to MDCKII cells in flasks, and cells were grown to 80-90% confluence. On assay day, cells were trypsinized and resuspended in Krebs-Henseleit Buffer (KHB), pH 7.4 at 5×10^6 […] cells/mL. Cells were preincubated for 15 min in assay plate before addition of test compound or substrate.Test compounds were serially diluted in DMSO and then spiked (2 μL) into in 0.4 mL KHB buffer containing wild-type or OCT2-transfected cells and incubated for 10 minutes. Assay was initiated with the addition of 0.1 mL of 100 μM 14C-TEA in KHB buffer (20 μM final concentration after mixing). The concentration of TEA is based on the Km. After 10 minutes of incubation, the assay mixture was quenched with addition of 0.5 mL of ice-cold 1×PBS buffer. Samples were then centrifuged at 1000 rpm for 5 min and supernatants were removed. Wash steps were repeated four times with ice-cold PBS. Finally, the cell pellets were lysed with 0.2N NaOH and let sit at room temperature for at least 30 min to ensure complete lysis.
Conditions: MDCK-II

Question: For O=C(NCc1c(F)cc(F)cc1F)c1cn2c(c(O)c1=O)C(=O)N1C3CCC(C3)O[C@H]1C2 (stereo partly drawn), which IC50 is on record?
Answer: The IC50 was 137 nM.

Question: For O=C(NCc1cc(F)ccc1F)c1cn2c(cc1=O)C(=O)N1C3CCC(C3)C1C2 (stereo not drawn), which IC50 is on record?
Answer: The IC50 was 450 nM.

Question: Which IC50 does the source give for C[C@@H](NC(=O)c1cn2c(c(O)c1=O)C(=O)N1C(C2)O[C@@H]2CC[C@@H]1C2)c1ccc(F)cc1F (stereo partly drawn) here?
Answer: The IC50 was 610 nM.
